The text below walks through data of US6090801A, “Pharmaceutical compositions containing ceftriaxone and penems” (SmithKline Beecham p.l.c., priority 1993, dated 2000).

For data set [1] the following is noted: in vivo; cited from earlier work.
A further data set is described as follows: serum half-life. The class given is in vivo. The note with it: in words; compared with ceftriaxone.
A further data set relates to Klebsiella pneumoniae 4. Briefly: MIC of ceftriaxone, alone and with compound of formula (I). Type of data set: cell-based.
For a further data set, the system named is Enterobacter cloacae P99. Described as above. Type of data set: cell-based.
Data set [2] concerns Bacteroides fragilis VP1 8908. Described as above. The class given is cell-based.
The test system of the next data set is various microorganisms. Briefly: enhancement of antibacterial activity of ceftriaxone by compound of formula (I) (MIC data overall). Type of data set: cell-based. The note with it: with 1 μg/ml compound of formula (I); from β-lactamase inhibitory effect.
Another data set deals with Bacteroides fragilis. The note with it: coadministration with tazobactam; J. Antimicrobial Chemotherapy (1993), 32, 307-312; cited from earlier work.
[3] abbreviates: ceftriaxone + 1 μg/1 ml of compound of Formula (I).

On to `C[C@]1(Cn2ccnn2)[C@H](C(=O)O)N2C(=O)C[C@H]2S1(=O)=O` [tazobactam], for which the serum half-lives result in data set [1] is “ca. 1 hours”.

For the compound `O=C([O-])C1=CS[C@@H]2/C(=C\c3cn4c(n3)SCC4)C(=O)N12.[Na+]` (racemic), the serum half life result in “serum half-life” is on record as “more compatible with ceftriaxone”.

For `CO/N=C(\C(=O)N[C@@H]1C(=O)N2C(C(=O)O)=C(CSc3nc(=O)c(=O)[nH]n3C)CS[C@H]12)c1csc(N)n1` [Ceftriaxone, [6R-[6α,7β(Z)]]-7-[[(2-Amino4-thiazolyl)(methoxyimino)acetyl]amino]-8-oxo-3-[[(1,2,5,6-tetrahydro-2-methyl-5-6-dioxo-1,2,4-triazin-3-yl)thio]-methyl]-5-thia-1-azabicyclo[4-2-O]oct-2-ene-2-carboxylic acid], the “MIC + 1 μg/1 ml of compound of Formula (I)” value with Klebsiella pneumoniae 4 (setting [3]) is 0.5 µg/mL; with Enterobacter cloacae P99 (Enterobacter cloacae P99, ceftriaxone + 1 μg/1 ml of compound of Formula (I)), 0.5 µg/mL; in data set [2] (setting [3]) it was 2 µg/mL. Moreover, the MIC in the data set on Klebsiella pneumoniae 4 (ceftriaxone alone) was 16 µg/mL; in the data set with Enterobacter cloacae P99 (Enterobacter cloacae, P99, read-out: MIC Ceftriaxone alone), 128 µg/mL; in data set [2] (VP18908, ceftriaxone alone) it was 128 µg/mL. The “enhancement of antibacterial activity of ceftriaxone” value in the data set with various microorganisms was “substantial enhancement of antibacterial activity”. Further, the serum half-lives result in data set [1] is reported as “ca. 8 hours”. Moreover, the “activity of ceftriaxone against anaerobes such as Bacteroides fragilis” value with Bacteroides fragilis was “enhanced by coadministration with the β-lactamaseinhibitor tazobactam”.

Broadly, the MIC is the smallest concentration in the dilution series that meets the test's criterion for growth inhibition.
